In ChEMBL document CHEMBL1201862, “PubChem BioAssay data set” (2004):
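The compound was tested at five concentrations on cells cultured in 96-well plates, with a 48-hour exposure period. Abbreviation: GI50, concentration required for 50% inhibition of growth.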 Active and inactive are the calls of the source. Rule as the data show it: active = GI50 up to about 1.1 µM and inactive = higher.

How the values were obtained:
Experiment in all cases: NCI-60 cell line screen, 48 h
[1] = tested on: TK-10
[2] = tested on: DMS-273
[3] = tested on: SR
[4] = tested on: RPMI-8226
[5] = tested on: KM-20L2
[6] = tested on: SNB-19
[7] = tested on: HOP-92
[8] = tested on: SN12C
[9] = tested on: SK-MEL-5
[10] = tested on: K562
[11] = tested on: KM12
[12] = tested on: OVCAR-8
[13] = tested on: M19-MEL
[14] = tested on: NCI-H23
[15] = tested on: M14
[16] = tested on: A498
[17] = tested on: HOP-18
[18] = tested on: T47D
[19] = tested on: Hs-578T
[20] = tested on: BT-549

Row | Structure (SMILES) | GI50 [1] | GI50 [2] | GI50 [3] | GI50 [4] | GI50 [5] | GI50 [6] | GI50 [7] | GI50 [8] | GI50 [9] | GI50 [10] | GI50 [11] | GI50 [12] | GI50 [13] | GI50 [14] | GI50 [15] | GI50 [16] | GI50 [17] | GI50 [18] | GI50 [19] | GI50 [20]
1 | O=c1[nH]c(-c2ccccc2)nc2cc([N+](=O)[O-])c(/C(Cl)=C/c3ccccc3)cc12 | 27.7 µM (inactive) | 29.1 µM (inactive) | 31.1 µM (inactive) | 16.1 µM (inactive) | 33.7 µM (inactive) | 41 µM (inactive) | 11.8 µM (inactive) | 36.6 µM (inactive) | 16.1 µM (inactive) | 7.5 µM (inactive) | 26.2 µM (inactive) | 19.7 µM (inactive) | 37.8 µM (inactive) | 43.3 µM (inactive) |  |  |  |  |  | 
2 | O=[N+]([O-])c1ccc(C2=Nc3ccccc3SC(c3ccccc3)C2)cc1 (stereo unspecified) | 38.1 µM (inactive) | 13.3 µM (inactive) | 18.2 µM (inactive) | 14.8 µM (inactive) | 17.6 µM (inactive) | 17 µM (inactive) |  | 17 µM (inactive) | 18.1 µM (inactive) | 15.8 µM (inactive) | 17.1 µM (inactive) | 20.8 µM (inactive) | 15.4 µM (inactive) |  | 19.4 µM (inactive) | 22.3 µM (inactive) |  |  |  | 
3 | Nc1n[nH]c(CCCCCCCc2nnc(N)[nH]2)n1 | > 100 µM (inactive) |  | > 100 µM (inactive) | > 100 µM (inactive) |  | > 100 µM (inactive) |  | > 100 µM (inactive) |  | > 100 µM (inactive) | > 100 µM (inactive) |  | > 100 µM (inactive) | > 100 µM (inactive) | > 100 µM (inactive) | > 100 µM (inactive) |  |  |  | 
4 | Cc1cc2c(cc1C)[n+]([O-])c(C(=O)/C=C/c1ccc(Cl)cc1)c(C)[n+]2[O-] | 22.2 µM (inactive) | 33.1 µM (inactive) |  | 23.4 µM (inactive) | 36.6 µM (inactive) | 30.3 µM (inactive) | 28.6 µM (inactive) | 32.8 µM (inactive) | 23.7 µM (inactive) | 33.6 µM (inactive) | 33.7 µM (inactive) | 29.7 µM (inactive) | 35.3 µM (inactive) | 20.7 µM (inactive) | 23.3 µM (inactive) | 26.7 µM (inactive) | 25.2 µM (inactive) |  |  | 
5 | COC(=O)/C=C(\C)CCC1SC1(C)C (stereo unspecified) | > 100 µM (inactive) | > 100 µM (inactive) |  | > 100 µM (inactive) | > 100 µM (inactive) | > 100 µM (inactive) |  | > 100 µM (inactive) | > 100 µM (inactive) | > 100 µM (inactive) | > 100 µM (inactive) | > 100 µM (inactive) | > 100 µM (inactive) | > 100 µM (inactive) | > 100 µM (inactive) | > 100 µM (inactive) | > 100 µM (inactive) |  |  | 
6 | Nc1cc(S(=O)(=O)O)cc2cc(S(=O)(=O)O)c(/N=N/c3ccc(-c4ccc(/N=N/c5c(S(=O)(=O)O)cc6cc(S(=O)(=O)O)cc(N)c6c5O)cc4)cc3)c(O)c12 |  | > 100 µM (inactive) |  | > 100 µM (inactive) | > 100 µM (inactive) | > 100 µM (inactive) | > 71.9 µM (inactive) | > 100 µM (inactive) | > 100 µM (inactive) | > 100 µM (inactive) | > 100 µM (inactive) | > 100 µM (inactive) | > 100 µM (inactive) | > 100 µM (inactive) |  | > 100 µM (inactive) | > 100 µM (inactive) |  |  | 
7 | CCOCCOc1ccc(OCCOCC)cc1 |  | 21.6 µM (inactive) |  | 3.51 µM (inactive) | 26.2 µM (inactive) | > 100 µM (inactive) |  | 16.8 µM (inactive) | 22.4 µM (inactive) | 7.91 µM (inactive) | 31.5 µM (inactive) | 16.6 µM (inactive) | 26 µM (inactive) | 29.9 µM (inactive) |  | 36.3 µM (inactive) | 10.7 µM (inactive) |  |  | 
8 | CCOC(=O)NC(=O)c1cn(CC(=O)NCC(=O)NCC(=O)N2CCN(CCn3c(C)nc(C(N)=O)c3N)CC2)c(=O)[nH]c1=O | > 100 µM (inactive) |  | > 100 µM (inactive) |  | > 100 µM (inactive) | > 100 µM (inactive) | > 100 µM (inactive) | > 100 µM (inactive) | > 100 µM (inactive) | > 100 µM (inactive) | > 100 µM (inactive) | > 100 µM (inactive) | > 100 µM (inactive) | > 100 µM (inactive) | > 100 µM (inactive) | > 100 µM (inactive) | > 100 µM (inactive) |  |  | 
9 | CSCC(CO)NC(=O)/C=C/c1c(C)[nH]c(=O)[nH]c1=O (stereo unspecified) |  | > 838 µM (inactive) |  | 661 µM (inactive) | 415 µM (inactive) | 791 µM (inactive) | 318 µM (inactive) | 367 µM (inactive) | > 820 µM (inactive) | 117 µM (inactive) | 695 µM (inactive) | 228 µM (inactive) | 478 µM (inactive) | 690 µM (inactive) |  | > 875 µM (inactive) | > 875 µM (inactive) |  |  | 
10 | NC(=O)c1ccccc1NC(=O)C(=O)C(C(=O)c1ccc2ccccc2c1)C1OC(=O)c2ccccc21 (stereo unspecified) | 22.6 µM (inactive) | 12.5 µM (inactive) |  | 8.91 µM (inactive) | 28.3 µM (inactive) | 4.04 µM (inactive) | 6.79 µM (inactive) | 15.9 µM (inactive) | 12 µM (inactive) | 16.5 µM (inactive) | 18.9 µM (inactive) | 7.66 µM (inactive) | 11.1 µM (inactive) | 9.66 µM (inactive) | 14.3 µM (inactive) | > 100 µM (inactive) | 1.34 µM (inactive) |  |  | 
11 | CN(C)C(=O)C1CCC(=C2C(=O)OC(C)(C)OC2=O)N1C (stereo unspecified) | > 100 µM (inactive) | > 100 µM (inactive) |  |  | > 100 µM (inactive) | > 100 µM (inactive) | > 100 µM (inactive) | > 100 µM (inactive) | > 100 µM (inactive) | > 100 µM (inactive) | > 100 µM (inactive) | > 100 µM (inactive) | > 100 µM (inactive) | > 100 µM (inactive) | > 100 µM (inactive) | > 100 µM (inactive) | > 100 µM (inactive) |  |  | 
12 | CC(C)=CC(=O)OC1C2C(C)=CC(O)C(O)C2(C)C2C3(O)OCC24C(CC(=O)OC14)C(C)C3O (stereo unspecified) |  | 0.0264 µM (active) |  | 0.0346 µM (active) | 0.354 µM (active) | 0.14 µM (active) | 0.0552 µM (active) | 0.386 µM (active) | 0.0252 µM (active) | 0.0378 µM (active) | 0.0791 µM (active) | 0.166 µM (active) | 0.034 µM (active) | 0.0611 µM (active) |  | 1.51 µM (inactive) | 1.11 µM (active) |  |  | 
13 | O=CCCn1[nH]c(=O)ccc1=O | > 100 µM (inactive) | > 100 µM (inactive) | > 100 µM (inactive) | > 100 µM (inactive) | > 100 µM (inactive) | > 100 µM (inactive) | > 100 µM (inactive) | > 100 µM (inactive) | > 100 µM (inactive) | > 100 µM (inactive) |  | > 100 µM (inactive) | > 100 µM (inactive) | > 100 µM (inactive) | > 100 µM (inactive) | > 100 µM (inactive) |  |  |  | 
14 | COC(=O)C1(Cc2ccccc2)Cc2cc3c(cc2C1)CCC3 | 68.7 µM (inactive) |  | 13 µM (inactive) | 15.4 µM (inactive) |  | 37.6 µM (inactive) | 11 µM (inactive) | 42.3 µM (inactive) | 17.2 µM (inactive) | 17 µM (inactive) | 22.3 µM (inactive) | 25.3 µM (inactive) |  | 38.5 µM (inactive) | 30.6 µM (inactive) | 35.5 µM (inactive) |  | 18.2 µM (inactive) | 34.4 µM (inactive) | 35 µM (inactive)
15 | Cc1c2cccc-2ccc2c3ccccc3n(C(=O)c3ccc(Cl)cc3)c12 | > 100 µM (inactive) |  | > 63.7 µM (inactive) | 45.1 µM (inactive) |  | > 100 µM (inactive) | > 100 µM (inactive) | > 100 µM (inactive) | > 100 µM (inactive) | > 100 µM (inactive) | 26.7 µM (inactive) | > 100 µM (inactive) |  | > 100 µM (inactive) | > 100 µM (inactive) | > 100 µM (inactive) |  | 1.39 µM (inactive) | > 91.2 µM (inactive) | > 100 µM (inactive)
16 | COC(=O)c1ccc(/C=C2\N=C(C)OC2=O)cc1 | > 100 µM (inactive) | > 100 µM (inactive) |  | > 100 µM (inactive) | > 100 µM (inactive) | > 100 µM (inactive) | > 100 µM (inactive) | > 100 µM (inactive) | > 100 µM (inactive) | > 100 µM (inactive) | > 100 µM (inactive) | > 100 µM (inactive) | > 100 µM (inactive) | > 100 µM (inactive) | > 100 µM (inactive) | > 100 µM (inactive) | > 100 µM (inactive) |  |  | 
17 | COc1cccc(NC(=O)CC(=O)n2nc(-c3ccccc3)c(/N=N/c3ccc(Cl)cc3)c2-c2ccccc2)c1 | 64.1 µM (inactive) |  | 11 µM (inactive) | 12 µM (inactive) |  | 17.8 µM (inactive) | 18.7 µM (inactive) | 18.6 µM (inactive) | 16.8 µM (inactive) | 12.4 µM (inactive) | 31.7 µM (inactive) | 15.8 µM (inactive) |  | 20 µM (inactive) | 15.2 µM (inactive) | 25.6 µM (inactive) |  | 13.9 µM (inactive) | 26.2 µM (inactive) | 11.8 µM (inactive)
18 | O=C(c1ccco1)C1CC(c2c(O)ccc3ccccc23)=NN1 (stereo unspecified) | 14.3 µM (inactive) |  | 2.72 µM (inactive) | 13.6 µM (inactive) |  | 16.4 µM (inactive) | 13.6 µM (inactive) | 20.1 µM (inactive) | 13.9 µM (inactive) | 12.4 µM (inactive) | 11.4 µM (inactive) | 18.3 µM (inactive) |  | 17.1 µM (inactive) | 11.9 µM (inactive) | 18.4 µM (inactive) |  | 3.33 µM (inactive) | 18.5 µM (inactive) | 14.9 µM (inactive)
